Patent publication US20240285656A1, “CANNABIDIOL (CBD) AND TERPENE F[…] INCREASES RESTORATIVE SLEEP IN HUMANS” (Defined Research, Inc., priority 2022, published 2024)

Legend:
[1] = Clinical study 1: modified Hamilton Anxiety Rating Scale; format: in vivo, humans; conditions: responders n=10; placebo 15
Excerpt: FIGS. 8A-8C are graphs showing the CBD formulation Decreasing Anxiety. At the end of each treatment period, study participants completed a clinically-validated survey entitled the Hamilton Anxiety Rating Scale^29. Each item in this rating scale is scored on a scale of 0 (not present) to 4 (severe), with a total score range of 0-53, where <14 indicates mild severity, 15-21 mild to moderate severity, and 22-27 moderate to severe. Based on this survey, the CBD formulation decreases anxiety in participants DR13 (FIG. 8A), DR16 (FIG. 8B), and DR21 (FIG. 8C) relative to the placebo control or CBD alone.
FIG. 9A is a graph showing the CBD formulation decreases Anxiety in “Responders”. […] Each item in this rating scale is scored on a scale of 0 (not present) to 4 (severe), with a total score range of 0-53, where <14 indicates mild severity, 15-21 mild to moderate severity, and 22-27 moderate to severe. […]
To measure the effects of the CBD formulation on anxiety, study participants completed a modified version of the Hamilton Anxiety Rating Scale, one of the first rating scales developed to measure the severity of anxiety symptoms that is widely used in clinical and research settings^29. […] Each item is scored on a scale of 0 (not present) to 4 (severe), with a total score range of 0-53, where <14 indicates mild severity, 15-21 mild to moderate severity, and 22-27 moderate to severe.

[2] = cited from earlier work
[3] = Clinical study 1: sleep survey / Participant Global Impression (PGI) questionnaire; format: in vivo, humans; conditions: participant DR11; sleep survey at end of treatment period
Excerpt: FIG. 7 is a graph showing the Study Participants Perceived That the CBD formulation Helped Them Sleep Better [p=0.13; (t test). n=23 responders per treatment group. Values are means±SEM]. At the end of each treatment period, study participants used a PGI questionnaire to determine if the treatment influenced their sleep relative to a baseline period before the treatments were initiated. Scoring Matrix: 1=Treatment Helped; 2-No Effect of Treatment; 3-Treatment Worsened.
In the first study, participants (N=23) were randomized to take a placebo control or the CBD formulation stated as Defined CBD in the Figures (˜300 mg CBD, ˜8 mg terpenes including linalool, myrcene, phytol, limonene, α-terpinene, α-terpineol, α-pinene, and β-caryophyllene) once daily, one hour before bedtime, for seven consecutive nights. […] Indeed, on average, over seven days of treatment, participant DR11 benefitted from nearly an extra hour of restorative sleep each night relative to the placebo control (FIG. 2B). Furthermore, participant DR11 was also able to perceive an improvement in their sleep quality and duration relative to the placebo control when they responded to a clinically validated sleep survey at the end of the treatment periods (as shown in Table 1).
At the end of each treatment period in the clinical studies, participants completed a modified version of a clinically validated questionnaire entitled the Participant Global Impression (PGI)^28. PGI assessments are based on the participant's global perception of the effects of treatment on sleep during each treatment period, as compared to their sleep during the baseline period of the study. […] Nevertheless, based on post-hoc power analysis performed, this effect would achieve statistical significance with a larger sample number.

[4] = given before simulation public speaking test; vs placebo; cited from earlier work
[5] = Clinical study 1 (Le Rêve 1.0): sleep physiology by Whoop sleep-tracking wristband, double-blind placebo-controlled crossover; format: in vivo, humans; conditions: participant DR11; 7 days per treatment; relative to placebo
Method: Two independent clinical studies were completed to determine the effects of the CBD formulation on the structure and function of sleep physiology. Each of these independent studies were performed as a double-blind, placebo-controlled, randomized, crossover investigational study to determine if the CBD formulation influences sleep physiology in humans.
Primary sleep physiology data was collected from study participants in a completely unbiased manner from a non-invasive sleep-tracking wristband, called “Whoop” (https://www.whoop.com), which electronically collects and transmits sleep data from study participants in the comfort of their own beds. The wristband collects hundreds of data points per second from a 3-axis accelerometer, 3-axis gyroscope, and heart rate sensor. The wristband can accurately measure latency to fall asleep, total sleep time, sleep fragmentation, as well as the time spent in each sleep stage [Light, Slow Wave (Deep), Rapid Eye Movement (REM), and Awake]. The wristband also collects data using photoplethysmography (PPG), a technique that involves measuring blood flow by assessing superficial changes in blood volume. Heart rate, heart rate variability, and respiratory rate, can all be derived from PPG data, and all of these metrics are used in Whoop's sleep detection and staging algorithms. […]

[6] = preclinical data; cited from earlier work
[7] = system: GABAA receptor; conditions: cited from earlier work; for GABAA receptor activity in cells: cell experiments
[8] = rodents; cited from earlier work
[9] = system: GABAA receptor; conditions: cited from earlier work
[10] = after one week of dosing; effect blocked by flumazenil; cited from earlier work
[11] = biological target: T1, SSADH (Homo sapiens, UniProt P51649); conditions: cited from earlier work
T1 sequence (P51649 48-535): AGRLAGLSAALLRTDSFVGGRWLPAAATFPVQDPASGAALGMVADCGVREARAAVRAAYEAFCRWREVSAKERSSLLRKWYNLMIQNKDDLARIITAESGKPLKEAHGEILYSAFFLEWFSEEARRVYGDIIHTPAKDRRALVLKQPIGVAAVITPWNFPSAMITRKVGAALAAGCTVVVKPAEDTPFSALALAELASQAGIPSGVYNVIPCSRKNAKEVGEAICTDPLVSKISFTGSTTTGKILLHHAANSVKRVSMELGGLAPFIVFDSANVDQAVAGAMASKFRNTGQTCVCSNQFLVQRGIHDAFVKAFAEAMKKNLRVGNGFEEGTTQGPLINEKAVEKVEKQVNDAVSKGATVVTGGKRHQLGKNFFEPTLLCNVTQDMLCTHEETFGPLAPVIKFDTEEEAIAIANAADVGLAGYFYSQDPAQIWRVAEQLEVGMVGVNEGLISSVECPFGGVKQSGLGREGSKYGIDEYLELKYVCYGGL

cannabidiol [CBD alone]
Hamilton Anxiety Rating Scale score [1]: 11
block of the anxiogenic effects of THC ([2]; clinical studies): can be blocked
Decreased Sleep Onset [3]: No
Improved Sleep [3]: No
Lengthened Sleep Duration [3]: No
anxiety, cognitive impairment and discomfort [4]: significantly reduced
hyper-alertness in anticipatory speech [4]: significantly decreased
increase in percentage of time spent in REM sleep [5]: about 4%
increase in percentage of time spent in restorative sleep [5]: about 2%

CC1=CC=C(C(C)C)CC1 [α-terpinene, 1-methyl-4-propan-2-ylcyclohexa-1,3-diene]
sedation in animals [6]: induce sedation

C=CC(=C)CCC=C(C)C [myrcene, 7-methyl-3-methylene-1,6-octadiene]
GABAA receptor activity in cells [7]: increased
sedation in animals [6]: induce sedation

C=C1CC/C=C(\C)CC[C@@H]2[C@@H]1CC2(C)C [β-caryophyllene]
sedation in animals [6]: induce sedation
locomotor activity [8]: did not affect
motor coordination [8]: did not affect
sleep [8]: mildly promote sleep

C=CC(C)(O)CCC=C(C)C (centres unmarked) [linalool]
binding to the GABA site or the benzodiazepine site of the GABAA receptor [9]: does not bind
GABAA receptor activity in cells [7]: significantly augment
sedation in animals [6]: induce sedation
sleep [8]: increases sleep

CC1=CCC(C(C)(C)O)CC1 (stereo not drawn) [α-terpineol, 2-(4-methylcyclohex-3-en-1-yl)propan-2-ol]
GABAA receptor activity in cells [7]: increase
sedation in animals [6]: induce sedation

C=C(C)C1CC=C(C)CC1 (centres unmarked) [limonene, 1-methyl-4-prop-1-en-2-ylcyclohexene]
sedation in animals [6]: induce sedation
brain GABA levels [10]: increased
locomotor activity [8]: reduced
motor coordination [8]: impaired
sleep [8]: induced sleep

C/C(=C\CO)CCC[C@H](C)CCC[C@H](C)CCCC(C)C [phytol, (2E,7R,11R)-3,7,11,15-Tetramethylhexadec-2-en-1-ol]
inhibition of SSADH [11]: inhibiting
sedation in animals [6]: induce sedation
sedative effects blocked by flumazenil [8]: blocked

CC1=CCC2CC1C2(C)C (stereo not drawn) [α-pinene, 2,6,6-trimethylbicyclo[3.1.1]hept-2-ene]
GABAA receptor activity in cells [7]: increased
effect in neurons blocked by flumazenil ([7]; neurons, flumazenil (benzodiazepine site antagonist)): fully blocked
sedation in animals [6]: induce sedation
sedative effects blocked by flumazenil [8]: blocked

CCCCCc1cc(O)c2c(c1)OC(C)(C)[C@@H]1CCC(C)=C[C@@H]21 [THC, tetrahydrocannabinol]
anxiety-promoting properties in clinical studies ([2]; in vivo): anxiogenic
